Assay results: US20090286831A1, “VR1 Receptor Ligands and u-Opioid Receptor Ligands for the Treatment of Pain” (priority 2006, published 2009)

Tests used:
Format in all cases: in vivo, rat
rats [1] = experiment: Tail-flick (hot beam) test in rats
rats [2] = experiment: Tail-flick (hot beam) test in rats; remark: listed apart in the source
Experimental: (§1) Sprague Dawley rats (140-160 g body weight) were used for the following animal models. Sprague Dawley rats (140-160 g body weight) from a commercial breeder (Janvier, Genest St. Isle, France) were used. The animals were kept under standard conditions: light-dark rhythm (06:00 to 18:00 h light, 18:00 to 06:00 h dark), room temperature 19-23° C., relative air humidity 45-65%, air exchange 19 times per hour, air movement <0.2 m/s, free choice of tap water and standard feed, Macrolon Type 4 cages with 5 animals per cage. The solutions of the test substances and/or vehicles (10% […], 5% Cremophor EL, 5% glucose) were administered intravenously.
The analgesic efficacy of the test compounds was examined in the hot beam (tail flick) test in rats using the method of D'Amour and Smith (J. Pharm. Exp. Ther. 1941, 72, 74-79). The time from switching on the lamp (8V/50 W) to the sudden flicking away of the tail from the hot beam (pain latency) was measured by means of a semiautomatic apparatus (tail-flick Analgesiemeter Type 50/08/1.bc, Labtec, Dr. Hess, Germany). The lamp intensity was adjusted before conducting the experiments so that the time from switching on the lamp to the sudden flicking away of the tail (pain latency) amounted to 3-5 seconds in untreated animals. The lamp was automatically switched off after 12 seconds to avoid tissue damage to the rat's tail. The pain latency was measured 10, 20, 40 and 60 min after intravenous administration. The analgesic effect was determined as increase in pain latency (% MPE) according to the following formula: […]
In this case, T0 is the latency time before and T1 the latency time after substance application, T2 is the maximum exposure time (12 sec). Results of the analgesia study in the tail-flick test in rats:
The following experiments of Example 2 relate to binding studies and the analgesic efficacy of the compounds with dual mode of action according to the invention. The experiments comprise the determination of the (f)Ki value at the TPRV1 receptor, the Ki value at the μ-opioid receptor and the hypothermia assay in mice. The tail-flick test for the compounds [1], [4], [7] and [10] according to the invention was conducted in a similar manner to the above-described method (cf. Example 1, experiment 1).

[3] = test system: rats after spinal nerve ligature; experiment: Mono-neuropathic pain after spinal nerve ligature (Chung model), electronic von Frey
Experimental: as §1
Under pentobarbital narcosis (Narcoren®, […] i.p., Merial GmbH, Hallbergmoos, Germany), the L5, L6 spinal nerves were firmly bound. The left L5 and L6 spinal nerves were exposed by removing a piece of paravertebral muscle and a portion of the left spinal process of the L5 lumbar vertebral body. The L5 and L6 spinal nerves were carefully isolated and bound with a firm ligature (NC silk, black, USP 5/0, metric 1, Braun Melsungen AG, Melsungen, Germany) (Kim and Chung, An experimental model for peripheral neuropathy produced by segmental spinal nerve ligature in the rat, Pain, 50, 1992, 355-363). After haemostasis was determined, the muscle and adjacent tissue were sutured and the wound closed by metal clamps. After a one-week recovery period the animals were placed in cages with a wire base closed to the top by a plastic hood for measurement of the mechanical allodynia. The animals were kept in this cage until their explorative behaviour had decreased.
The threshold for the tactile allodynia was measured by means of an electronic von Frey anaesthesiometer (Somedic AB, Malmö, Sweden). The animals were randomly divided into groups of 10 animals. Each group received an individual dose of test substance or vehicle and the measurements were conducted 0.5 h before application and at various times after intravenous administration. Both the ipsi- and the contra-lateral rear paw were tested. The median of five stimulations gave a measured data point. The data were determined as % maximum possible effect (% MPE) from the pre-tests of the Chung individual animals (=0% MPE) and the test values of an independent sham control group (=100% MPE). The effect of the test substance and the vehicle was calculated for each measurement time (i.e. 0.5, 1 and 3 h after application) as inter-individual % MPE value. […] The corresponding threshold values are given in gram (mean±SEM).

[4] = AMG-9810 2.15 mg/kg i.v. group, Control (pre-test 0.5 h before application)
[5] = AMG-9810 2.15 mg/kg i.v., 30 min
[6] = AMG-9810 2.15 mg/kg i.v., 60 min
[7] = AMG-9810 2.15 mg/kg i.v., 180 min
[8] = Morphine 1.0 mg/kg i.v. group, Control (pre-test 0.5 h before application)
[9] = Morphine 1.0 mg/kg i.v., 30 min
[10] = Morphine 1.0 mg/kg i.v., 60 min
[11] = Morphine 1.0 mg/kg i.v., 180 min
[12] = Morphine 2.0 mg/kg i.v. group, Control (pre-test 0.5 h before application)
[13] = Morphine 2.0 mg/kg i.v., 30 min
[14] = Morphine 2.0 mg/kg i.v., 60 min
[15] = Morphine 2.0 mg/kg i.v., 180 min

CC(C)(C)c1ccc(/C=C/C(=O)Nc2ccc3c(c2)OCCO3)cc1 [AMG-9810]
% MPE (increase in pain latency), mean (rats [1]; AMG-9810 10 mg/kg i.v., 40 min): 4.38 % MPE
% MPE (increase in pain latency), mean (rats [2]; AMG-9810 10 mg/kg i.v., 10 min): 26.36 % MPE
% MPE (increase in pain latency), mean (rats [2]; AMG-9810 10 mg/kg i.v., 20 min): 11.44 % MPE
% MPE (increase in pain latency), mean (rats [2]; AMG-9810 10 mg/kg i.v., 60 min): −4.06 % MPE
pull-away threshold value, contra-lateral rear paw, mean [3, 4]: 57.79 gram
pull-away threshold value, ipsi-lateral rear paw, mean [3, 4]: 23.23 gram
pull-away threshold value, contra-lateral rear paw, mean [3, 5]: 55.91 gram
pull-away threshold value, ipsi-lateral rear paw, mean [3, 5]: 32.27 gram
pull-away threshold value, contra-lateral rear paw, mean [3, 6]: 52.4 gram
pull-away threshold value, ipsi-lateral rear paw, mean [3, 6]: 31.18 gram
pull-away threshold value, contra-lateral rear paw, mean [3, 7]: 57.38 gram
pull-away threshold value, ipsi-lateral rear paw, mean [3, 7]: 26.94 gram

CN1CC[C@]23c4c5ccc(O)c4O[C@H]2[C@@H](O)C=C[C@H]3[C@H]1C5 [Morphine, morphine]
% MPE (increase in pain latency), mean (rats [1]; Morphine 0.4 mg/kg i.v., 20 min): 23.62 % MPE
% MPE (increase in pain latency), mean (rats [1]; Morphine 0.4 mg/kg i.v., 40 min): 14.1 % MPE
% MPE (increase in pain latency), mean (rats [1]; Morphine 0.8 mg/kg i.v., 10 min): 45.31 % MPE
% MPE (increase in pain latency), mean (rats [1]; Morphine 0.8 mg/kg i.v., 20 min): 45.02 % MPE
% MPE (increase in pain latency), mean (rats [1]; Morphine 0.8 mg/kg i.v., 40 min): 25.86 % MPE
% MPE (increase in pain latency), mean (rats [1]; Morphine 0.8 mg/kg i.v., 60 min): 14.62 % MPE
% MPE (increase in pain latency), mean (rats [2]; Morphine 0.4 mg/kg i.v., 10 min): 26.51 % MPE
% MPE (increase in pain latency), mean (rats [2]; Morphine 0.4 mg/kg i.v., 60 min): 4.23 % MPE
antinociceptive efficacy (conclusion) (rats [2]; combination of two threshold doses of the same opioid): additive antinociceptive efficacy
pull-away threshold value, contra-lateral rear paw, mean [3, 8]: 56.81 gram
pull-away threshold value, ipsi-lateral rear paw, mean [3, 8]: 23.63 gram
pull-away threshold value, contra-lateral rear paw, mean [3, 9]: 67.87 gram
pull-away threshold value, ipsi-lateral rear paw, mean [3, 9]: 32.13 gram
pull-away threshold value, contra-lateral rear paw, mean [3, 10]: 60.95 gram
pull-away threshold value, ipsi-lateral rear paw, mean [3, 10]: 27.65 gram
pull-away threshold value, contra-lateral rear paw, mean [3, 11]: 54.63 gram
pull-away threshold value, ipsi-lateral rear paw, mean [3, 11]: 30.67 gram
pull-away threshold value, contra-lateral rear paw, mean [3, 12]: 58.39 gram
pull-away threshold value, ipsi-lateral rear paw, mean [3, 12]: 24.37 gram
pull-away threshold value, contra-lateral rear paw, mean [3, 13]: 82.83 gram
pull-away threshold value, ipsi-lateral rear paw, mean [3, 13]: 48.44 gram
pull-away threshold value, contra-lateral rear paw, mean [3, 14]: 74.68 gram
pull-away threshold value, ipsi-lateral rear paw, mean [3, 14]: 44.87 gram
pull-away threshold value, contra-lateral rear paw, mean [3, 15]: 59.93 gram
pull-away threshold value, ipsi-lateral rear paw, mean [3, 15]: 39.19 gram
efficacy (conclusion) ([3]; combination of two threshold doses of the same opioid, pull away increased on ipsi- and contra-lateral paw): additive antinociceptive efficacy
